Experimental data reported in PMC11062922 (Nature Chemical Biology, 2023).

Assays:
Assay in all cases: Kinobeads competition binding profiling, two doses (100 nM and 1 µM);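 also: inhibitor preincubated 45 min at 4 °C in cell lysate, then bead pulldown. Bound protein quantified by label-free mass spectrometry relative to DMSO vehicle control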
[1] = biological target: T1, endogenous kinases and other proteins enriched by Kinobeads from mixed lysates of K-562, COLO-205, MV-4-11, SK-N-BE(2) and OVCAR-8 (Homo sapiens, UniProt P07948); conditions: read-out: Lestaurtinib Drugmatrix value (apparent Kd), Gene Name LYN; target LYN; each column = one Lestaurtinib control run_replicate
T1 construct: endogenous in cells

[2] = tested on: endogenous kinases and other proteins enriched by Kinobeads from mixed lysates of K-562, COLO-205, MV-4-11, SK-N-BE(2) and OVCAR-8; set-up: species or system human
[3] = biological target: T2, endogenous kinases and other proteins enriched by Kinobeads from mixed lysates of K-562, COLO-205, MV-4-11, SK-N-BE(2) and OVCAR-8 (Homo sapiens, UniProt Q13188); conditions: read-out: Lestaurtinib Drugmatrix value, Gene Name STK3; target STK3; one Lestaurtinib control experiment/replicate (R1-R3)
T2 construct: endogenous in cells

[4] = biological target: T3, endogenous kinases and other proteins enriched by Kinobeads from mixed lysates of K-562, COLO-205, MV-4-11, SK-N-BE(2) and OVCAR-8 (Homo sapiens, UniProt Q05397); conditions: read-out: Lestaurtinib Drugmatrix value, Gene Name PTK2
T3 construct: endogenous in cells
T3 sequence (Q05397 whole entry): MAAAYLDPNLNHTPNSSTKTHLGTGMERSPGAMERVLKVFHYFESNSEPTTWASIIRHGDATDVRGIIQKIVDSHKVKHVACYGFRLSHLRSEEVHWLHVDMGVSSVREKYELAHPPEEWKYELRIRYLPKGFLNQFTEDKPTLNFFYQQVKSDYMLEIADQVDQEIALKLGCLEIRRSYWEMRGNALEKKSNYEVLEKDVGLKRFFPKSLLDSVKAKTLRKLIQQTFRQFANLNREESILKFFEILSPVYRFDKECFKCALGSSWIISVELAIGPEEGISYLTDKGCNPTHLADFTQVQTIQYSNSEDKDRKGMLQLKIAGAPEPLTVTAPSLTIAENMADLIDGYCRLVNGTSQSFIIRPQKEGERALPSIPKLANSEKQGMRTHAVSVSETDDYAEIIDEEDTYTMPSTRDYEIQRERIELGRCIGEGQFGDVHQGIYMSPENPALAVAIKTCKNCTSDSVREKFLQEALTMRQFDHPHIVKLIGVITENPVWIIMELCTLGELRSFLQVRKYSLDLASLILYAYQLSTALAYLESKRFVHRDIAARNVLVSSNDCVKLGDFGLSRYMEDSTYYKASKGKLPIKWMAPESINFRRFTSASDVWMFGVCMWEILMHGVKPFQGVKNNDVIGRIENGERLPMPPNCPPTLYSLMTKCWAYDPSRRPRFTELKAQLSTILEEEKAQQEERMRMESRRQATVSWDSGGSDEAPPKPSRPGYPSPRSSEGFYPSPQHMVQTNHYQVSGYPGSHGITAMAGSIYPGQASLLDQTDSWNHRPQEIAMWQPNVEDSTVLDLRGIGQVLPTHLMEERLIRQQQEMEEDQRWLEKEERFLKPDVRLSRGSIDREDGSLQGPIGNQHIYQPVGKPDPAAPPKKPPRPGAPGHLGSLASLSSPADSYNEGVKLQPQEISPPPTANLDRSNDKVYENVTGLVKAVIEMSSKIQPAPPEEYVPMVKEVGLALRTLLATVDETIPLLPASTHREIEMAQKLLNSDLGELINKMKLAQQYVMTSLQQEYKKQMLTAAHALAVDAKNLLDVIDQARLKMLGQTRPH

[5] = biological target: T4, endogenous kinases and other proteins enriched by Kinobeads from mixed lysates of K-562, COLO-205, MV-4-11, SK-N-BE(2) and OVCAR-8 (Homo sapiens, UniProt P42680); conditions: read-out: Lestaurtinib Drugmatrix value, Gene Name TEC; target TEC; one Lestaurtinib control experiment/replicate (R1-R3)
T4 construct: to maximize the representation of endogenous proteins; endogenous in cells

[6] = biological target: T5, endogenous kinases and other proteins enriched by Kinobeads from mixed lysates of K-562, COLO-205, MV-4-11, SK-N-BE(2) and OVCAR-8 (Homo sapiens, UniProt O43353); conditions: read-out: Lestaurtinib Drugmatrix value, Gene Name RIPK2; target RIPK2; one Lestaurtinib control experiment/replicate (R1-R3)
T5 construct: to maximize the representation of endogenous proteins; endogenous in cells
T5 sequence (O43353 whole entry): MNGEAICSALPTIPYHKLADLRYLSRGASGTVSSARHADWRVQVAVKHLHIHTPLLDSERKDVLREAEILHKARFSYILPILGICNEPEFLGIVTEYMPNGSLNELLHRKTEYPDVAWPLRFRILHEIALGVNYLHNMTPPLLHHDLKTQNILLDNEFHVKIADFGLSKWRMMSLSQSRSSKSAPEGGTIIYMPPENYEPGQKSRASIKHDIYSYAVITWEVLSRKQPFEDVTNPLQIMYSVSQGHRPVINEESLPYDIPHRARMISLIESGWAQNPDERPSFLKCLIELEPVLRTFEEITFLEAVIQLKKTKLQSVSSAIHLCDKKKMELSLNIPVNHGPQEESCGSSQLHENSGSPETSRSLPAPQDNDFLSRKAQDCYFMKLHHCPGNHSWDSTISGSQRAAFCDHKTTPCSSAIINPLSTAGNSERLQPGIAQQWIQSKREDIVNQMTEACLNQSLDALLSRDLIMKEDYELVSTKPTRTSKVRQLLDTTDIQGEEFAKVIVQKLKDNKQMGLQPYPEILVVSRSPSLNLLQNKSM

[7] = biological target: T6, endogenous kinases and other proteins enriched by Kinobeads from mixed lysates of K-562, COLO-205, MV-4-11, SK-N-BE(2) and OVCAR-8 (Homo sapiens, UniProt Q15418); conditions: RSK1(Kin.Dom.1-N-terminal)
T6 construct: endogenous in cells

[8] = biological target: T7, endogenous kinases and other proteins enriched by Kinobeads from mixed lysates of K-562, COLO-205, MV-4-11, SK-N-BE(2) and OVCAR-8 (Homo sapiens, UniProt P54762); conditions: EPHB1
T7 construct: endogenous in cells
T7 sequence (P54762 18-984): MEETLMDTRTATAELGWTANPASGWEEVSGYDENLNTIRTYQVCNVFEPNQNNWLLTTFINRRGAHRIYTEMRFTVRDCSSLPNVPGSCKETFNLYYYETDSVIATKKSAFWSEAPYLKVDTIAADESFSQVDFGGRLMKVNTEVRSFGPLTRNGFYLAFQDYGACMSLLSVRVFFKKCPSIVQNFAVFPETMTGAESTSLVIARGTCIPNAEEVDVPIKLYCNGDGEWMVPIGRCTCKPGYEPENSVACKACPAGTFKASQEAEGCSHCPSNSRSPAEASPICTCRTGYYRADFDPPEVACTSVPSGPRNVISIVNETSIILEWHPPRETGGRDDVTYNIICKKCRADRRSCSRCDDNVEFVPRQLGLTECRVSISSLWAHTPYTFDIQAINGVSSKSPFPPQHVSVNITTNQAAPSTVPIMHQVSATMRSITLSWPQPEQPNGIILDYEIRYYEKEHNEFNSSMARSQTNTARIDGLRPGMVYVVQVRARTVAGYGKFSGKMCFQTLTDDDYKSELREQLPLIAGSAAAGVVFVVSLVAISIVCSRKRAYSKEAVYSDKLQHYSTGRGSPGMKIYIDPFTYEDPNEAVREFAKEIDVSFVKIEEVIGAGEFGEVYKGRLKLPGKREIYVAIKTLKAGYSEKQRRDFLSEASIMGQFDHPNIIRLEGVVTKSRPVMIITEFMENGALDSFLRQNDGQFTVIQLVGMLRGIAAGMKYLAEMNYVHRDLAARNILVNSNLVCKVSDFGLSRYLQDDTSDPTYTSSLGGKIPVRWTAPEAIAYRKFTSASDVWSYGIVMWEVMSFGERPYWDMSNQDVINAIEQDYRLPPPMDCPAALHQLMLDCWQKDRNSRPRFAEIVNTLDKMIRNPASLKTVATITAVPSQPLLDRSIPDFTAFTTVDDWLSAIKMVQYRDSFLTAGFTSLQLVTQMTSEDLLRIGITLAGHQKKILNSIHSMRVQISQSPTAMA

[9] = biological target: T8, endogenous kinases and other proteins enriched by Kinobeads from mixed lysates of K-562, COLO-205, MV-4-11, SK-N-BE(2) and OVCAR-8 (Homo sapiens, UniProt P80192); conditions: MLK1
T8 construct: endogenous in cells

[10] = biological target: T9, endogenous kinases and other proteins enriched by Kinobeads from mixed lysates of K-562, COLO-205, MV-4-11, SK-N-BE(2) and OVCAR-8 (Homo sapiens, UniProt Q16584); conditions: MLK3
T9 construct: endogenous in cells

[11] = biological target: T10, endogenous kinases and other proteins enriched by Kinobeads from mixed lysates of K-562, COLO-205, MV-4-11, SK-N-BE(2) and OVCAR-8 (Homo sapiens, UniProt Q13163); conditions: MEK5
T10 construct: endogenous in cells

[12] = biological target: T11, endogenous kinases and other proteins enriched by Kinobeads from mixed lysates of K-562, COLO-205, MV-4-11, SK-N-BE(2) and OVCAR-8 (Homo sapiens, UniProt Q12866); conditions: MERTK
T11 construct: endogenous in cells
T11 sequence (Q12866 21-999): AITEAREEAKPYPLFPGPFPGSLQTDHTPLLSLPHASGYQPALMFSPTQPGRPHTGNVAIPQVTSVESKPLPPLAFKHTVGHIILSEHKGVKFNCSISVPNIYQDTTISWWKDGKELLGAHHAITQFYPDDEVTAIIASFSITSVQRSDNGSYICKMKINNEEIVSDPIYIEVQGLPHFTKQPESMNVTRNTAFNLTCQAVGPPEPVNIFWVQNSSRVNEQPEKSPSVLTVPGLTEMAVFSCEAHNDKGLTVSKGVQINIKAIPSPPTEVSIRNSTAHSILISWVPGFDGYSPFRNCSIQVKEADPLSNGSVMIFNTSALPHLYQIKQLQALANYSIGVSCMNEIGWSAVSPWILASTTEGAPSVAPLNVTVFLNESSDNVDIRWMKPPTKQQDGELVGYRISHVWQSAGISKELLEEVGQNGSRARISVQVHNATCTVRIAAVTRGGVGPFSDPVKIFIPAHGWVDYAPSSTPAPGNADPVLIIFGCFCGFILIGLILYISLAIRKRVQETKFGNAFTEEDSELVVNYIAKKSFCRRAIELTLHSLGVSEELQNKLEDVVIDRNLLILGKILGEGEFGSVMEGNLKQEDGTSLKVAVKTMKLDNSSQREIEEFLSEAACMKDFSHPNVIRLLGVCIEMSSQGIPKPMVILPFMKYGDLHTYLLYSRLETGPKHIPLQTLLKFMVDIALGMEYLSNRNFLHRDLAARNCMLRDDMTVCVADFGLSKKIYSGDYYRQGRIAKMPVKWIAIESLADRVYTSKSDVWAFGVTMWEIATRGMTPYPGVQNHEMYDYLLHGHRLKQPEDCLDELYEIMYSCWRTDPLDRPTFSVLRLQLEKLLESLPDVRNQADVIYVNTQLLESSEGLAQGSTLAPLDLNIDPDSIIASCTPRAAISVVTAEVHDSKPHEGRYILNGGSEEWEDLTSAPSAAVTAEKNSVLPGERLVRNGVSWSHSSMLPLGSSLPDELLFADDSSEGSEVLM

[13] = biological target: T12, endogenous kinases and other proteins enriched by Kinobeads from mixed lysates of K-562, COLO-205, MV-4-11, SK-N-BE(2) and OVCAR-8 (Homo sapiens, UniProt P51956); conditions: NEK3
T12 construct: endogenous in cells

[14] = biological target: T13, endogenous kinases and other proteins enriched by Kinobeads from mixed lysates of K-562, COLO-205, MV-4-11, SK-N-BE(2) and OVCAR-8 (Homo sapiens, UniProt O75716); conditions: STK16
T13 construct: endogenous in cells
T13 sequence (O75716 whole entry): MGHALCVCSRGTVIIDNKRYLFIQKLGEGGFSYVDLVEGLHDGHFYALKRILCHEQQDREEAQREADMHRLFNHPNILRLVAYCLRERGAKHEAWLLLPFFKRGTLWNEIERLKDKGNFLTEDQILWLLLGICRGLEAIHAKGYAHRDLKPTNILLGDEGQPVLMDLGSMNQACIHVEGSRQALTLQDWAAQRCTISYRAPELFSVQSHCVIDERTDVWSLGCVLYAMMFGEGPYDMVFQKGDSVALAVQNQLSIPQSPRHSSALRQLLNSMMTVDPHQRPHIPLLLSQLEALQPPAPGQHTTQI

[15] = biological target: T14, endogenous kinases and other proteins enriched by Kinobeads from mixed lysates of K-562, COLO-205, MV-4-11, SK-N-BE(2) and OVCAR-8 (Homo sapiens, UniProt Q16832); conditions: DDR2
T14 construct: endogenous in cells

[16] = biological target: T15, endogenous kinases and other proteins enriched by Kinobeads from mixed lysates of K-562, COLO-205, MV-4-11, SK-N-BE(2) and OVCAR-8 (Homo sapiens, UniProt Q13627); conditions: DYRK1A
T15 construct: endogenous in cells

[17] = biological target: T16, endogenous kinases and other proteins enriched by Kinobeads from mixed lysates of K-562, COLO-205, MV-4-11, SK-N-BE(2) and OVCAR-8 (Homo sapiens, UniProt Q13131); conditions: AMPK-alpha1
T16 construct: endogenous in cells
T16 sequence (Q13131 whole entry): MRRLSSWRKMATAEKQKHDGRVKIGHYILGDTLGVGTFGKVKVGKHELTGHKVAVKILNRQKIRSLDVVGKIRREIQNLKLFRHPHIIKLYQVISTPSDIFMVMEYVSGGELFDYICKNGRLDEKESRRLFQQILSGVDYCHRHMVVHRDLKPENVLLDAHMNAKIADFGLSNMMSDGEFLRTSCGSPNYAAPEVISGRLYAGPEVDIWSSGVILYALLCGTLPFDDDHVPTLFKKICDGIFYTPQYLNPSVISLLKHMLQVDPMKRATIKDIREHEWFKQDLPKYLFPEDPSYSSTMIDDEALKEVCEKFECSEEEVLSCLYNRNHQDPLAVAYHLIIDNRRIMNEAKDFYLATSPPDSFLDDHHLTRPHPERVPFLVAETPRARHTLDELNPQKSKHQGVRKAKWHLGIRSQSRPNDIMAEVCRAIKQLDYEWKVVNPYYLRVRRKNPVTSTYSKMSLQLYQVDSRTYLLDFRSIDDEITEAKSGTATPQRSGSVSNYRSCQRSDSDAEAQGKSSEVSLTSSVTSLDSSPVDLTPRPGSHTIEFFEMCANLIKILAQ

[18] = biological target: T17, endogenous kinases and other proteins enriched by Kinobeads from mixed lysates of K-562, COLO-205, MV-4-11, SK-N-BE(2) and OVCAR-8 (Homo sapiens, UniProt Q9Y463); conditions: DYRK1B
T17 construct: endogenous in cells

[19] = biological target: T18, endogenous kinases and other proteins enriched by Kinobeads from mixed lysates of K-562, COLO-205, MV-4-11, SK-N-BE(2) and OVCAR-8 (Homo sapiens, UniProt P22694); conditions: PKAC-beta
T18 construct: endogenous in cells

[20] = biological target: T19, endogenous kinases and other proteins enriched by Kinobeads from mixed lysates of K-562, COLO-205, MV-4-11, SK-N-BE(2) and OVCAR-8 (Homo sapiens, UniProt P54646); conditions: AMPK-alpha2
T19 construct: endogenous in cells
T19 sequence (P54646 whole entry): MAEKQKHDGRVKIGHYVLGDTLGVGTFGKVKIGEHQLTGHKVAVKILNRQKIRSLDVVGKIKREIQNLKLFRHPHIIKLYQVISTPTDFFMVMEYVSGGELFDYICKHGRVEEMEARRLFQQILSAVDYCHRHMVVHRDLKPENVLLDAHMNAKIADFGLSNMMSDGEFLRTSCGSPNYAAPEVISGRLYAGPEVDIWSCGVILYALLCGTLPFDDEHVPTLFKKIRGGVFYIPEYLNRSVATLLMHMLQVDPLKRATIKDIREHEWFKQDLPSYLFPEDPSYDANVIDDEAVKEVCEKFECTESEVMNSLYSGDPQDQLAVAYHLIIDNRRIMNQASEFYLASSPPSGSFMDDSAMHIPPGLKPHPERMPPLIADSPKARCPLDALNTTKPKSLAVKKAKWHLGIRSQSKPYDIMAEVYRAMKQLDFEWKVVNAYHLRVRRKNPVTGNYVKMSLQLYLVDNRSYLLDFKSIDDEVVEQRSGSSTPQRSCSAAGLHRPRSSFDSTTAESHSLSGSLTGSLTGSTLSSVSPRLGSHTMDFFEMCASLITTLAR

[21] = biological target: T20, endogenous kinases and other proteins enriched by Kinobeads from mixed lysates of K-562, COLO-205, MV-4-11, SK-N-BE(2) and OVCAR-8 (Homo sapiens, UniProt Q8TD19); conditions: NEK9
T20 construct: endogenous in cells

C[C@]12O[C@H](C[C@]1(O)CO)n1c3ccccc3c3c4c(c5c6ccccc6n2c5c31)CNC4=O [Lestaurtinib]
potency estimated from few doses [1]: 808 nM | number of targets in the Kinobead assay [2]: 76 | potency estimated from few doses [3]: 39.1 nM | potency estimated from few doses [4]: 345 nM | potency estimated from few doses [5]: 895 nM | potency estimated from few doses [6]: 810 nM

COc1cc(Nc2ncc3c(C)nc(-c4cc5ccccc5[nH]4)n3n2)cc(OC)c1OC [GW869516X]
Kinobeads Data [7]: no target | Kinobeads Data [8]: no target | Kinobeads Data [9]: no target | Kinobeads Data [10]: no target | Kinobeads Data [11]: no target | Kinobeads Data [12]: no target | Kinobeads Data [13]: no target | Kinobeads Data [14]: no target | Kinobeads Data [15]: no target | Kinobeads Data [16]: no target | Kinobeads Data [17]: no target | Kinobeads Data [18]: no target | Kinobeads Data [19]: no target | Kinobeads Data [20]: no target | Kinobeads Data [21]: no target
